Like-named read-outs stand apart in the source and are kept apart here.

What all share (assay): PTP IC50 assay, pNPP or FDP as substrate
What all share (assay type): biochemical

For one assay, the target named is T1, PTP MU (Homo sapiens, UniProt P28827).
T1 construct: made in house; host or cells: E. coli BL-21 (pGEX 6P-1)

For another assay, the target named is T2, PTP 1B (Homo sapiens, UniProt P18031).
T2 construct: made in house; host or cells: Sf-9 insect cells (pFastBac-G2T)
T2 sequence (P18031 1-435): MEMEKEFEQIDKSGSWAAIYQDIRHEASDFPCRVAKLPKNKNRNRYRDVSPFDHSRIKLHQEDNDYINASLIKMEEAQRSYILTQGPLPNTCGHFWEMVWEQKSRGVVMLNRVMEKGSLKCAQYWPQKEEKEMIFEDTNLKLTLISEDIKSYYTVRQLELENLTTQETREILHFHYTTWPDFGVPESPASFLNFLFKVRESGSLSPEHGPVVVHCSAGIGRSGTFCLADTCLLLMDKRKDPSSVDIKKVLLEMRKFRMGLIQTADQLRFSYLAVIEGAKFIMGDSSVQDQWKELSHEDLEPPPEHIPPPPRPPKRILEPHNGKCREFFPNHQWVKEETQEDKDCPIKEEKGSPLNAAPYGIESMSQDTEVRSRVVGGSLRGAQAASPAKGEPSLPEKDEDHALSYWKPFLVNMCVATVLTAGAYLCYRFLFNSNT
The method, then:
(§1) The following in vitro assay procedure is preferred to determine the level of activity and effect of the different compounds of the present invention on one or more of the PTPs. Similar assays can be designed along the same lines for any PTP using techniques well known in the art.
(§2) The catalytic assays described herein are performed in a 96-well format. The general procedure begins with the determination of PTP optimal pH using a three-component buffer system that minimizes ionic strength variations across a wide range of buffer pH. Next, the Michaelis-Menten constant, or Km, is determined for each specific substrate-PTP system. This Km value is subsequently used as the substrate reaction concentration for compound screening. Finally, the test PTP is exposed to varying concentrations of compound for fifteen minutes and allowed to react with substrate for ten minutes. The results are plotted as percent inhibition versus compound concentration and the IC50 interpolated from the plot.
(§3) All assays were performed using pNPP or FDP as substrate. The optimum pH was determined for each PTP used.
(§4) PTPase activity was assayed at 25° C. in a 100-μl reaction mixture containing an appropriate concentration of pNPP or FDP as substrate. The reaction was initiated by addition of the PTP and quenched after 10 min by addition of 50 μl of IN NaOH. The non-enzymatic hydrolysis of the substrate was corrected by measuring the control without the addition of the enzyme. The amount of p-nitrophenol produced was determined from the absorbance at 410 nm. To determine the kinetic parameter, Km, the initial velocities were measured at various substrate concentrations and the data were fitted to the Michaelis equation where velocity=(Vmax*[S])/(Km+[S]), and [S]=substrate reaction concentration.
(§5) The effect of the compounds on PTP was evaluated at 25° C. using pNPP or FDP as substrate. PTP was pre-incubated for fifteen minutes with various concentrations of compound. Substrate was then added at a fixed concentration (usually equal to the Km previously calculated). After 10 minutes, NaOH was added to stop the reaction. The hydrolysis of pNPP was followed at 410 nm on the Biotek Powerwave 200 microplate scanning spectrophotometer. The percent inhibition was calculated as follows: Percent Inhibition=[(control signal−compound signal)/control signal] ×100%. The IC50 was then determined by interpolation of a percent inhibition versus compound concentration plot.
(§6) Plasmids designed for bacterial GST-PTP fusion protein expression were derived by insertion of PCR-generated human PTP fragments into pGEX vectors (Pharmacia Biotech). Several of these constructs were then used to subclone phosphatases into pFastBac-1for expression in Sf-9 insect cells. Oligonucleotides used for the initial amplification of PTP genes are shown below. The cDNAs were prepared using the Gilbo BRL superscript preamplification system on RNAs purchased from Clontech.
The PTP1b cDNA was amplified from human placenta single strand cDNA (Clontech RNA) using the following oligonucleotides: 5′oligo: 5′-[…] (SEQ ID NO: 4) 3′oligo: 5′-[…] (SEQ ID NO: 5) It was subsequently ligated into pFasBac G2TBamH1Xba-1 sites.

The target in another assay is T3, PTP SHP2 (Homo sapiens, UniProt Q06124).
T3 construct: The catalytic domain was amplified using the following oligonucleotides; made in house; host or cells: Sf-9 insect cells (pFastBac-G2T)
T3 sequence (Q06124 247-517 limits assumed): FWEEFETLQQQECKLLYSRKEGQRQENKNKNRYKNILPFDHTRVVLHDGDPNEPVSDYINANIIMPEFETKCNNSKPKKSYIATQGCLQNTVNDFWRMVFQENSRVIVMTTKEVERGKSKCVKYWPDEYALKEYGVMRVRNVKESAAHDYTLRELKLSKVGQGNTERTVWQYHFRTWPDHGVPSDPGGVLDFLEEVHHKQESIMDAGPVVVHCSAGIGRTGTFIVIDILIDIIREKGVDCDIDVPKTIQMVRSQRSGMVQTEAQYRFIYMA
Here is the method: as §1, §2, §3, §4, §5, §6
SHP-2 cDNA was used as described earlier (Vogel W., et al.,1993, Science, 259:1611-4). The catalytic domain was amplified using the following oligonucleotides 5′oligo: 5′-[…]-3′ (SEQ ID NO: 2) 3′oligo: 5′-[…]-3′ (SEQ ID NO: 3) and subsequently subcloned into BamH1-Xba-1 sites. It was then ligated into pfas Bac-G2T BamH1-Xba-1 sites.

The target in another assay is T4, PTP ALPHA (Homo sapiens, UniProt P18433).
T4 construct: RTPα intracellular domain construct was obtained; made in house; host or cells: E. coli BL-21 (pGEX 3X)
The following applies: 25° C. Here is the method: as §1, §2, §3, §4, §5, §6
RTPα intracellular domain construct was obtained, Schlessinger et al., U.S. Pat. No. 5,888,794, the contents of which are hereby incorporated in their entirety into the present application. The RTPα fragment was cloned into pGEX 3× using the following procedure. The portion from EclX I/Xma III/Eag I (N-terminus blunted by Klenow) to Eco RV was cloned into the Sma I site. The EclX I site is approximately 15 residues downstream of the transmembrane domain.

Setting [1] is: pNPP or FDP as substrate, 25° C., read-out: PTP IC50 Mu.
[2] abbreviates: pNPP or FDP as substrate, 25° C., read-out: PTP IC50 1B.
Setting [3] is: pNPP or FDP as substrate, 25° C., read-out: PTP IC50 SHP2.

T1 sequence (P28827 831-1186 limits assumed): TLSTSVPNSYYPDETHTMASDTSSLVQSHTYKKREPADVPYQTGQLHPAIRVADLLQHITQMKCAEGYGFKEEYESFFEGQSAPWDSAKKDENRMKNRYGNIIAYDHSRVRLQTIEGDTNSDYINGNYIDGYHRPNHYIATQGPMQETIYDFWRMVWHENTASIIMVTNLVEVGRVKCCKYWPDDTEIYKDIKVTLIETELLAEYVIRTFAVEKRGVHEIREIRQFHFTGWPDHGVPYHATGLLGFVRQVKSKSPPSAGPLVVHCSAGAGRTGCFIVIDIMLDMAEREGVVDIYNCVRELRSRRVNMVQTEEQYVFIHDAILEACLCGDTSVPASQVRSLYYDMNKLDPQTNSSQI

Broadly, the IC50 is the concentration at which inhibition is half-maximal. Turning to `CCOC(=O)c1cc(Oc2ccc(S(=O)(=O)C(F)(F)F)cc2[N+](=O)[O-])c(C(=O)OCC)cc1O` [Example 26, 2-Hydroxy-5-(2-nitro-4-trifluoromethanesulfonyl-phenoxy)-terephthalic acid diethyl ester], the IC50 on PTP MU (setting [1]) was 65 µM; on PTP 1B (setting [2]), more than 100 µM; on PTP SHP2 (setting [3]) it was more than 100 µM; at PTP ALPHA it was more than 100 µM.
Turning to `O=C(O)Cc1ccccc1CC(=O)Nc1cccc(S(=O)(=O)C(F)(F)F)c1` [Example 27, {2-[(3-Trifluoromethanesulfonyl-phenylcarbamoyl)-methyl]-phenyl}-acetic acid], the IC50 on PTP MU (setting [1]), at PTP 1B (setting [2]), at PTP SHP2 (setting [3]) and at PTP ALPHA was more than 100 µM each time.
In the case of `O=C(O)Cc1cccc(CC(=O)Nc2cccc(S(=O)(=O)C(F)(F)F)c2)c1` [Example 28, {3-[(3-Trifluoromethanesulfonyl-phenylcarbamoyl)-methyl]-phenyl}-acetic acid], the IC50 on PTP MU (setting [1]) was more than 100 µM; at PTP 1B (setting [2]), 27.6 µM; on PTP SHP2 (setting [3]), 17.9 µM; on PTP ALPHA, 36.2 µM.
The like results for `O=C(O)Cc1ccc(CC(=O)Nc2cccc(S(=O)(=O)C(F)(F)F)c2)cc1` [Example 29, {4-[(3-Trifluoromethanesulfonyl-phenylcarbamoyl)-methyl]-phenyl}-acetic acid] were, in that order, more than 100 µM, 35.4 µM, 37 µM and 19.3 µM.
In the case of `NC(=O)c1cc(Oc2ccc(S(=O)(=O)C(F)(F)F)cc2[N+](=O)[O-])cc(Oc2ccc(S(=O)(=O)C(F)(F)F)cc2[N+](=O)[O-])c1` [Example 30, 3,5-Bis-(2-nitro-4-trifluoromethanesulfonyl-phenoxy)-benzamide], the concentration for half-maximal inhibition (IC50) was 28.4 µM at PTP MU; more than 100 µM on PTP 1B (PTP IC50 1B, pNPP or FDP as substrate, 25° C.); 52.8 µM at PTP SHP2 (PTP IC50 SHP2, pNPP or FDP as substrate, 25° C.); more than 100 µM at PTP ALPHA.
Take `O=C(O)c1cc(Oc2ccc(S(=O)(=O)C(F)(F)F)cc2)cc(Oc2ccc(S(=O)(=O)C(F)(F)F)cc2)c1` [Example 31, 3,5-Bis-(4-trifluoromethanesulfonyl-phenoxy)-benzoic acid]: the IC50 on PTP MU (setting [1]) was determined as 8.7 µM; at PTP 1B (setting [2]), 6.2 µM; at PTP SHP2 (setting [3]), 5.7 µM; on PTP ALPHA it was 6 µM.
For the compound `O=S(=O)(Nc1ccc(CCc2ccc(NS(=O)(=O)C(F)(F)F)cc2)cc1)C(F)(F)F` [Example 66, 1,2-Bis(4-trifluoromethylsulfonamidophenyl)ethane], the concentration for half-maximal inhibition (IC50) at PTP MU (setting [1]) is 70.9 µM; at PTP 1B (setting [2]) it was 60.4 µM; at PTP SHP2 (setting [3]) it was 36.6 µM; on PTP ALPHA it was more than 100 µM.
For `Cc1cc(NS(=O)(=O)C(F)(F)F)ccc1CCc1ccc(NS(=O)(=O)C(F)(F)F)cc1C` [Example 67, 1,2-Bis(2-methyl-4-trifluoromethylsulfonamidophenyl)ethane], in that order: 41.3 µM, 35 µM, 17 µM and 53.6 µM.
For `CC(C)(COc1ccc(NS(=O)(=O)C(F)(F)F)cc1)COc1ccc(NS(=O)(=O)C(F)(F)F)cc1` [Example 68, 1,3-Bis(4-trifluoromethylsulfonamidophenoxy)-2,2-dimethylpropane], the IC50 turned out to be 42 µM on PTP MU (setting [1]), 44.6 µM at PTP 1B (setting [2]), 6.2 µM on PTP SHP2 (setting [3]) and 27 µM at PTP ALPHA.
`O=S(=O)(Nc1ccc(OCCCOc2ccc(NS(=O)(=O)C(F)(F)F)cc2)cc1)C(F)(F)F` [Example 69, 1,3-Bis(4-trifluoromethylsulfonamidophenoxy)propane]: the IC50 at PTP MU (setting [1]) was found to be 37 µM; at PTP 1B (setting [2]), 78.9 µM; on PTP SHP2 (setting [3]) it was 20.3 µM; at PTP ALPHA, 31 µM.
The like results for `O=S(=O)(Nc1ccc(OCCCCOc2ccc(NS(=O)(=O)C(F)(F)F)cc2)cc1)C(F)(F)F` [Example 70, 1,4-Bis(4-trifluoromethylsulfonamidophenoxy)butane] were, in that order, 65.3 µM, 85 µM, 17.1 µM and 46 µM.
For `O=S(=O)(Nc1ccc(Oc2ccc(Oc3ccc(NS(=O)(=O)C(F)(F)F)cc3)cc2)cc1)C(F)(F)F` [Example 71, 1,4-Bis(4-trifluoromethylsulfonamidophenoxy)benzene], the IC50 on PTP MU (comparison of R groups, read-out: IC50 Mu) is 4 µM; at PTP 1B (comparison of R groups, read-out: IC50 1B), 10.6 µM; on PTP 1B (setting [2]) it was 10.6 µM; on PTP SHP2 (comparison of R groups, read-out: IC50 SHP2), 3.4 µM; on PTP SHP2 (setting [3]), 3.4 µM; at PTP ALPHA it was 11.9 µM.

The values above are taken from patent publication US6596772B1, “Phosphate mimics and methods of treatment using phosphatase inhibitors” (Sugen, Inc., priority 1999, dated 2003).
